Laboratory results reported in patent US20060069132A1, “Azolecarboxamide herbicides” (priority 2004, published 2006).

What was measured:
[1] = test system: pigweed; assay: Test C pre-/postemergence herbicide test; assay type: in vivo, Amaranthus retroflexus; conditions: preemergence; for Plant response rating (0 = no effect, 100 = complete control), Pigweed: 125 g ai/ha
Method in brief: (§1)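 Seeds were planted and sprayed preemergence with test chemicals in a non-phytotoxic solvent mixture containing surfactant; postemergence treatments went onto plants 2 to 18 cm tall (1- to 4-leaf stage). After 12 to 14 days in a greenhouse, injury was rated visually against untreated controls on a 0–100 scale.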

[2] = test system: common ragweed; assay: Test C pre-/postemergence herbicide test; assay type: in vivo, Ambrosia elatior; design: key to Plant response rating, Ragweed: 0 = no effect, 100 = complete control; conditions: preemergence; for Plant response rating (0 = no effect, 100 = complete control), Ragweed: 125 g ai/ha
Method in brief: as §1

[3] = test system: wild oat; assay: Test B postemergence herbicide test; assay type: in vivo, Avena fatua
Method in brief: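 Read-out: visual comparison with controls, scored 0 to 100, where 100 means complete control and 0 no effect. Formulated chemicals were applied postemergence to plants 2–18 cm tall (1- to 4-leaf), or to flooded-paddy plants at the 2-leaf stage, then held 13 to 15 days under glass.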

[4] = test system: lambsquarters; assay: Test C pre-/postemergence herbicide test; assay type: in vivo, Chenopodium album; conditions: preemergence; for Plant response rating (0 = no effect, 100 = complete control), Lambsquarters: 125 g ai/ha
Method in brief: as §1

[5] = test system: goosegrass; assay: Test C pre-/postemergence herbicide test; assay type: in vivo, Eleusine indica; conditions: preemergence; for Plant response rating (0 = no effect, 100 = complete control), Goosegrass: 125 g ai/ha
Method in brief: as §1

[6] = test system: large crabgrass; assay: Test C pre-/postemergence herbicide test; assay type: in vivo, Digitaria sanguinalis; conditions: preemergence; for Plant response rating (0 = no effect, 100 = complete control), Crabgrass, Large: 125 g ai/ha
Method in brief: as §1

[7] = test system: kochia; assay: Test C pre-/postemergence herbicide test; assay type: in vivo, Kochia scoparia; conditions: preemergence; for Plant response rating (0 = no effect, 100 = complete control), Kochia: 125 g ai/ha
Method in brief: as §1

[8] = test system: pigweed; assay: Test B pre-/postemergence herbicide test; assay type: in vivo, Amaranthus retroflexus; conditions: for Plant response rating (0 to 100 scale), Pigweed: 0 is no effect, 100 is complete control, preemergence
Method in brief: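 Visual rating, 0 (no effect) to 100 (complete control), versus untreated controls after 13–15 d in greenhouse. Pre- and postemergence applications (postemergence plants 2–18 cm, 1–4 leaves); flooded paddy arm at 2-leaf stage. Compounds in non-phytotoxic solvent plus surfactant.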

[9] = 500 g ai/ha, scale 0 to 100 (0 no effect, 100 complete control), visual, 12 to 14 days
[10] = 125 g ai/ha, visual rating, scale 0 (no effect) to 100 (complete control), postemergence
[11] = Postemergence, 500 g ai/ha, scale 0 (no effect) to 100 (complete control)
[12] = postemergence, 125 g ai/ha, scale 0 to 100

Structure (SMILES)	Plant response rating, Pigweed ([1]; 62 g ai/ha, scale 0 to 100)	Plant response rating (0 = no effect, 100 = complete control), Pigweed [1]	Plant response rating, Pigweed [1, 9]	Plant response rating, Ragweed ([2]; 62 g ai/ha, scale 0 to 100)	Plant response rating (0 = no effect, 100 = complete control), Ragweed [2]	Plant response rating, Ragweed [2, 9]	Oat, Wild plant response rating [3, 11]	Plant response rating, Lambsquarters ([4]; 62 g ai/ha, scale 0 to 100)	Plant response rating (0 = no effect, 100 = complete control), Lambsquarters [4]	Plant response rating, Lambsquarters ([4]; 250 g ai/ha, scale 0-100)	Plant response rating, Lambsquarters [4, 9]	Plant response rating, Goosegrass ([5]; 62 g ai/ha, scale 0 to 100)	Plant response rating (0 = no effect, 100 = complete control), Goosegrass [5]	Plant response rating, Goosegrass ([5]; 250 g ai/ha, scale 0-100)	Plant response rating, Goosegrass [5, 9]	Plant response rating, Crabgrass, Large ([6]; 62 g ai/ha, scale 0 to 100)	Plant response rating (0 = no effect, 100 = complete control), Crabgrass, Large [6]	Plant response rating, Crabgrass, Large ([6]; 250 g ai/ha, scale 0-100)	Plant response rating, Crabgrass, Large [6, 9]	Plant response rating (0 = no effect, 100 = complete control), Kochia [7]	further results
CCNC(=O)c1ccc(F)c(N(C(C)=O)C(=O)c2cc(C(C)(C)C)nn2CC)c1 [Compound 399]	100	100	100	95	100	100	40	100	100	100	100	95	100	100	100	100	100	100	100	80	Oat, Wild plant response rating [3, 10]: 20; Plant response rating, Kochia ([7]; 250 g ai/ha, scale 0-100): 100; Plant response rating, Kochia [7, 9]: 100; Plant response rating (0 to 100 scale), Pigweed ([8]; 125 g ai/ha): 100; Pigweed plant response rating [8, 10]: 60; Pigweed plant response rating [8, 11]: 80
CCN(CC)C(=O)c1cccc(NC(=O)c2nn(C(C)(C)C)nc2C)c1 [Compound 418]	100	100	100	50	70	100	10	95	100	100	100	55	100	100	100	95	100	100	100	80	Oat, Wild plant response rating [3, 12]: 0; Plant response rating, Kochia ([7]; 62 g ai/ha, scale 0 to 100): 65; Plant response rating, Kochia ([7]; 250 g ai/ha, scale 0-100): 85; Plant response rating, Kochia [7, 9]: 95; Plant response rating (0 to 100 scale), Pigweed ([8]; 125 g ai/ha): 100; Pigweed plant response rating [8, 11]: 80; Pigweed plant response rating [8, 12]: 70
